# Experimental data reported in patent publication US20130288292A1, “SURFACE-TENSION BASED FLOW GUIDANCE IN A MICROSTRUCTURE ENVIRONMENT” (priority 2011, published 2013).
# System: PC3-M cells
# Assay: Immunocytochemistry staining of Ki67 in PC3-M cells embedded in 3D Matrigel
# Type: cell-based
# Conditions: 20 μM Cycloheximide in growth media; PC3-M cells in 3D Matrigel (90%), Iuvo Slide 3D ICC platform
# Procedure: FIGS. 11 A-C show immunocytochemistry staining of PC3-M Cells embedded in 3D matrix. PC3-M cells were embedded in 3D Matrigel™ (90%) on the Iuvo™ Slide—3D ICC platform (Figure A.). Once the matrix gelled, growth media (with and without 20 μM Cycloheximide) was added to the side compartments of the channel. Following incubation, the cells in the matrix were fixed by flowing reagents through the side channels and allowing sufficient time for diffusion into the gel. A standard immunocytochemistry protocol (4% formaldehyde fixative, 0.5% TX-100 permeabilization buffer, 10% goat serum blocking buffer, primary antibody for Ki67 from LabVision, and AlexaFluor®594 secondary antibody) was utilized. […] FIG. 11 C. is a graph showing the quantitative analysis of the immunocytochemistry staining of PC3-M Cells embedded in a 3D Matrix.
# Another embodiment of the invention provides a device that enables the use of assay methods requiring multiple liquid replacement, or wash steps that require the diffusion of large biomolecules, in matrices that are very dense, such as Matrigel™. For example, it is becoming increasingly clear that the lack of a native three dimensional tissue microenvironment seriously limits the utility and accuracy of cellular assays, many of which rely on immunocytochemistry as an endpoint. […]
compound,measurement,value
C[C@@H]1C[C@@H]([C@H](O)CC2CC(=O)NC(=O)C2)C(=O)[C@@H](C)C1 [Cycloheximide],proliferation marker Ki67 (immunocytochemistry staining),loss of proliferation marker
